As a reminder, the IC50 is the concentration that gives 50% inhibition. As a reminder, the inhibition is the relative decrease from the control value, in per cent.

We go through one molecule from ChEMBL document CHEMBL4765285, “Discovery of orally active indirubin-3'-oxime derivatives as potent type 1 FLT3 inhibitors for acute myeloid leukemia” (Eur J Med Chem, 2020).

The target in assay [1] is T1, Receptor-type tyrosine-protein kinase FLT3 (Homo sapiens, UniProt P36888).
T1 sequence (P36888 whole entry): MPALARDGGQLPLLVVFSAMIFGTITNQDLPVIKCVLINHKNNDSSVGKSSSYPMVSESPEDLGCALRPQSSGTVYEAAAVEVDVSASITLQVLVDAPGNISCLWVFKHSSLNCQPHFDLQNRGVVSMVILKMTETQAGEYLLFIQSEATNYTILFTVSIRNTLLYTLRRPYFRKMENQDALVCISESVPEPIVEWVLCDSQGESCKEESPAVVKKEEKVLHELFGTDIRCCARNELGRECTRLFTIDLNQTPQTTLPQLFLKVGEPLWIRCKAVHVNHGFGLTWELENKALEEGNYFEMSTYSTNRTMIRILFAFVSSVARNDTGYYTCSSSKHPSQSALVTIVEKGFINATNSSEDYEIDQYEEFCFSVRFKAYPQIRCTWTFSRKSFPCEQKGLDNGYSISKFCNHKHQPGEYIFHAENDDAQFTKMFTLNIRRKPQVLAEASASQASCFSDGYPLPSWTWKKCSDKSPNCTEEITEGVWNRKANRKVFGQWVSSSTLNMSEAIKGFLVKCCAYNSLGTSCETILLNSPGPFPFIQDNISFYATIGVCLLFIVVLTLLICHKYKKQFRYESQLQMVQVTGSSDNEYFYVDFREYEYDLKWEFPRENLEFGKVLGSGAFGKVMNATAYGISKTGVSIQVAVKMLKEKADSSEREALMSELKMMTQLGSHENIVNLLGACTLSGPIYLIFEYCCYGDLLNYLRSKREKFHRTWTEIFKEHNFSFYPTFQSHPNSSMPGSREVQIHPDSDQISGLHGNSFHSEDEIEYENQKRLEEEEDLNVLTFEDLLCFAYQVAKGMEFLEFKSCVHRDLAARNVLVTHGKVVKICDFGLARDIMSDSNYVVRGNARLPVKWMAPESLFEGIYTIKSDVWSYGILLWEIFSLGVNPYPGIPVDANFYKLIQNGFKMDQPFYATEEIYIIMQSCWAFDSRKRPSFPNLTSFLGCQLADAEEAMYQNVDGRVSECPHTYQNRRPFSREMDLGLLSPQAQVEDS
Description: Inhibition of recombinant His-tagged human FLT3 expressed in baculovirus expression system using peptide substrate incubated for 30 mins in presence of ATP by HTRF assay

The target in assay [2] is Receptor-type tyrosine-protein kinase FLT3 (Homo sapiens, UniProt P36888, D835Y). The assay can be described thus: Inhibition of human FLT3 D835Y mutant in presence of ATP.
Assay [3] concerns the target Maternal embryonic leucine zipper kinase (Homo sapiens, UniProt Q14680). The assay can be described thus: Inhibition of human MELK at 100 nM in presence of ATP relative to control.

Chain of Maternal embryonic leucine zipper kinase (Q14680 whole entry, looked up): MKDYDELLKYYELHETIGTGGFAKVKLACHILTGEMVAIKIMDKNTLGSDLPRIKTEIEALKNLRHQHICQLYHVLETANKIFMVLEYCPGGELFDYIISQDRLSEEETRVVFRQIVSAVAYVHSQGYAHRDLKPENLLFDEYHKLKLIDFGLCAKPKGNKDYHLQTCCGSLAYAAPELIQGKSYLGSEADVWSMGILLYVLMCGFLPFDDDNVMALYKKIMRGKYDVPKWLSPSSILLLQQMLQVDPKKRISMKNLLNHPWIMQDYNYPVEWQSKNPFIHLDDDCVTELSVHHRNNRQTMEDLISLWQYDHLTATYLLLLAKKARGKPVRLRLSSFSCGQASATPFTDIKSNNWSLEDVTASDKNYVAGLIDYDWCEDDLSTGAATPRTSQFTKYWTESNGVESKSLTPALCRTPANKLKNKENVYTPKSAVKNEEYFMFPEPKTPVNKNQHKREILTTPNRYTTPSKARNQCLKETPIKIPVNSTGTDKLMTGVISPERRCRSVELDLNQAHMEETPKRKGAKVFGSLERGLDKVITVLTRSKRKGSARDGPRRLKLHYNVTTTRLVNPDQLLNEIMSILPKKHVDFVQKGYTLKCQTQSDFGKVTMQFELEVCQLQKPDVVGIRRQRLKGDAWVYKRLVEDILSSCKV

`Cl.O=C1Nc2ccc(F)cc2/C1=C1/Nc2ccccc2/C1=N\OCCN1CCNCC1`: the IC50 was found to be 0.87 nM in assay [1] and 0.32 nM in assay [2]. In assay [3], the inhibition amounted to 86%.
